This is an account of results in US6395708B1, “Method for preventing diarrhea” (Novartis, A.G., priority 1999, dated 2002).

The conditions of assay [1]: cited from earlier work.
Assay [2] in a line: Octreotide prophylaxis of irinotecan-induced diarrhea in patients receiving irinotecan. In kind it is in vivo. Conditions: octreotide prophylactic treatment before or concurrent with irinotecan; octreotide acetate long-acting release formulation 10, 20 or 30 mg. Here is the method:
In the prophylaxis of diarrhea according to the invention, octreotide may be administered simultaneously with irinotecan, or the compounds may be administered sequentially, in any desired order. Preferably octreotide is administered some days before the first irinotecan administration and subsequent octreotide administrations are before or simultaneous with irinotecan administration, the time of administration (dosing intervals) of octreotide depending on the preferred irinotecan-scheduled regimen. In a preferred embodiment of the present invention, octreotide acetate long-acting release formulation is administered 10-14 days prior to the first irinotecan dose. For example, when irinotecan is administered in a planned 6-week cycle, wherein irinotecan is given intravenously as a single-agent or in combination with other antineoplastic agents such as, e.g., cisplatin, 5-fluoruracil or others, over 30-90 minutes once weekly for 4 weeks followed by a 2-week rest period, octreotide acetate long-acting release formulation may be administered prior to the first irinotecan dose and again on Day 15 or Day 22 of this 6-week cycle. The octreotide acetate long-acting release formulation dosage is 10 mg, 20 mg or 30 mg at the time of each octreotide administration. […]

The conditions of assay [3]: prophylaxis against chemotherapy-induced diarrhea; cited from earlier work.
For assay [4] the following is noted: patients who experienced this side-effect during a previous course of chemotherapy; cited from earlier work.
The conditions of assay [5]: intensive, immediate application once diarrhea has started; cited from earlier work.

Take `C[C@@H](O)[C@@H]1NC(=O)[C@H](CCCCN)NC(=O)[C@@H](Cc2c[nH]c3ccccc23)NC(=O)[C@H](Cc2ccccc2)NC(=O)[C@@H](NC(=O)[C@H](N)Cc2ccccc2)CSSC[C@@H](C(=O)N[C@H](CO)[C@@H](C)O)NC1=O` (relative stereo) [octreotide, L-cysteinamide,D-phenylalanyl-L-cysteinyl-L-phenylalanyl-D-tryptophyl-L-lysyl-L-threonyl-N-[2-hydro-1-hydroxymethyl) propyl]-, cyclic (2→7)-disulfide; [R-(R*,R*)]]: the “treatment of 5-fluorouracil-induced diarrhea” value in assay [1] (Meropol et al. 1998) is on record as “successful in the treatment of 5-fluorouracil-induced diarrhea”. The “efficacy in therapy of 5-fluorouracil-induced diarrhea, compared with loperamide” value in assay [1] (randomized trial comparing octreotide with loperamide) is reported as “more effective than loperamide”. Further, the “severity and duration of diarrhea” value in assay [2] is “avoids or remarkably limits the severity and duration of diarrhea in many cases”. The “prevention of diarrhea associated with 5-fluorouracil plus leucovorin” value in assay [3] is reported as “does not prevent diarrhea”. Moreover, the “prevention of diarrhea associated with cisplatin” value in assay [4] is “active in preventing diarrhea”.
Take `CN(C)C(=O)C(CCN1CCC(O)(c2ccc(Cl)cc2)CC1)(c1ccccc1)c1ccccc1` [loperamide]: in assay [5], the frequency of diarrhea entry was “had not reduced the frequency of diarrhea” and the severity of diarrhea result is “often successful in reducing the severity of diarrhea”.
